For one data set, the system named is HEK293. Description: Cytotoxicity against HEK293 cells at 20 uM incubated for 24 hrs by MTT assay. It is filed as toxicity, cell-based. The note with it: human, hek293, 24 h. (Tetrazolium dyes change colour on reduction, which living cells bring about.)
Data set [1] concerns the target T1, NAD-dependent protein deacetylase sirtuin-1 (Homo sapiens) (UniProt Q96EB6).
T1 sequence (whole entry): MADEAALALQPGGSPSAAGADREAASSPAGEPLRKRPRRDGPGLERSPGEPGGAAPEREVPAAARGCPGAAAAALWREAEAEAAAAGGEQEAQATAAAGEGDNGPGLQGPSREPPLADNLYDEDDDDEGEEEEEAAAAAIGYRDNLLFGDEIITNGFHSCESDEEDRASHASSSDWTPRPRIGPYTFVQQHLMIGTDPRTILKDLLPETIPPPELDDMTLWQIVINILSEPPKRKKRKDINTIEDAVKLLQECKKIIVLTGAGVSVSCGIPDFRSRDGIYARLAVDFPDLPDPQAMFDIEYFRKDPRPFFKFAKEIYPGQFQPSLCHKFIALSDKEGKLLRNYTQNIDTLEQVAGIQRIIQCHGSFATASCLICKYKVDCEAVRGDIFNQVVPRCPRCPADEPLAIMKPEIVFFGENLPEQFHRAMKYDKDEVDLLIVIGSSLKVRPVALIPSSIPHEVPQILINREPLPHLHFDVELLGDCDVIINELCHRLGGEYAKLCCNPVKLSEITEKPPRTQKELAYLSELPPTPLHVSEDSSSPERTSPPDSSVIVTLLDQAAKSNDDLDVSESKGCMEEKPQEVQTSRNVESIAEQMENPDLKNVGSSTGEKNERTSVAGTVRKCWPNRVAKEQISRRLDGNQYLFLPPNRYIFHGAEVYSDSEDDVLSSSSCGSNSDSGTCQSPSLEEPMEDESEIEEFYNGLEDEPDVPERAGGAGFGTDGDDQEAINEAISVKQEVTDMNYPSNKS
Description: Activation of SIRT1 deacetylation (unknown origin) transfected in HEK293 cells cotransfected with PG13-Luc/myc-tagged p53/flag-tagged Sirt1/RSV-beta-galactosidase assessed as decrease in luciferase activity at 10 uM incubated for 24 hrs by firefly luciferase assay. It is filed as cell-based.

In data set [2] the target is T1, NAD-dependent protein deacetylase sirtuin-1 (Homo sapiens). Description: Activation of SIRT1 deacetylation (unknown origin) transfected in HEK293 cells cotransfected with PG13-Luc/myc-tagged p53/flag-tagged Sirt1/RSV-beta-galactosidase assessed as decrease in luciferase activity at 20 uM incubated for 24 hrs by firefly luciferase assay relative to control. Conditions: filed as activator. Also on record: scale not given: the % may be the effect or the level left. In kind it is cell-based.

The target is the same in data set [3]. Description: Activation of SIRT1 deacetylation (unknown origin) in flag tagged Sirt1 overexpressed HEK293 cells assessed as increase in NAD+/NADH ratio incubated for 12 hrs by fluorescence microplate reader analysis. Conditions: filed as activator, dose 10-20 µM. In kind it is cell-based.
Data set [4] shares this target. Nature of the data set: Activation of SIRT1 deacetylation (unknown origin) transfected in HEK293 cells cotransfected with PG13-Luc/myc-tagged p53/flag-tagged Sirt1/RSV-beta-galactosidase assessed as decrease in luciferase activity incubated for 24 hrs by firefly luciferase assay. In kind it is cell-based. The note with it: filed as activator, dose 10-20 µM.

SMILES strings stand for the structures. The source made the active and inactive calls. The rule behind the calls is not given here.

With `CC1=CC[C@@H](C(C)(C)O[C@@H]2O[C@H](CO)[C@@H](O)[C@H](O)[C@H]2O)CC1`, the Activity entry with HEK293 was “Non-Toxic”.

On to `O=C(C[C@H]1C(=O)Nc2ccccc21)OC[C@H]1O[C@@H](OCCc2ccc(O)cc2)[C@H](O)[C@@H](O)[C@@H]1O`, for which the Activity result in the data set with HEK293 was “Non-Toxic”; in data set [2], 65%. Besides, the outcome in data set [1] was inactive.

On to `O=C(C[C@H]1C(=O)Nc2ccccc21)OC[C@H]1O[C@@H](OCCc2ccc(O)c(O)c2)[C@H](O)[C@@H](O)[C@@H]1O`, for which the Activity result in the data set with HEK293 was “Non-Toxic”.

In the case of `O=C(C[C@@H]1C(=O)Nc2ccccc21)OC[C@H]1O[C@@H](OCCc2ccc(O)cc2)[C@H](O)[C@@H](O)[C@@H]1O`, the Activity result in the data set with HEK293 is “Non-Toxic”; in data set [2], 45%; in data set [3], “Dose-Dependent Effect”; in data set [4], “Dose-Dependent Effect”. Besides, in data set [1] (filed as activator), the outcome was Active.

`OC[C@@H](O)[C@@H](O)[C@H](O)[C@H](O)[C@@H](O)CO`: the Activity entry with HEK293 is “Non-Toxic”.

As for `CO[C@@]1(CC(=O)OC[C@H]2O[C@@H](OCCc3ccc(O)cc3)[C@H](O)[C@@H](O)[C@@H]2O)OC(=O)Nc2ccccc21`, the Activity result with HEK293 was “Non-Toxic”.

Turning to `CO[C@]1(CC(=O)OC[C@H]2O[C@@H](OCCc3ccc(O)cc3)[C@H](O)[C@@H](O)[C@@H]2O)OC(=O)Nc2ccccc21`, the Activity entry in the data set on HEK293 is recorded as “Non-Toxic”.

As for `O=C(/C=C1/C(=O)Nc2ccccc21)OC[C@H]1O[C@@H](OCCc2ccc(O)cc2)[C@H](O)[C@@H](O)[C@@H]1O`, the Activity result with HEK293 was “Non-Toxic”.

Consider `O=C(C[C@@H]1C(=O)Nc2ccccc21)OC[C@H]1O[C@@H](OCCc2ccc(O)c(O)c2)[C@H](O)[C@@H](O)[C@@H]1O`, for which, in the data set on HEK293, the Activity entry is listed as “Non-Toxic”.

With `O=C(C[C@@]1(O)C(=O)Nc2ccccc21)OC[C@H]1O[C@@H](OCCc2ccc(O)cc2)[C@H](O)[C@@H](O)[C@@H]1O`, the Activity entry in the data set on HEK293 is recorded as “Non-Toxic”.

Turning to `O=C(C[C@]1(O)C(=O)Nc2ccccc21)OC[C@H]1O[C@@H](OCCc2ccc(O)cc2)[C@H](O)[C@@H](O)[C@@H]1O`, the Activity entry in the data set on HEK293 is on record as “Non-Toxic”.

These data come from ChEMBL document CHEMBL5370600, “Oxindole and Benzoxazinone Alkaloids from the Seeds of Persea americana (Avocado) and Their SIRT1 Stimulatory Activity” (J Nat Prod, 2023).
